Reference: patent US9346753B2, “Dithiol mucolytic agents” (PARION SCIENCES, INC., priority 2013, dated 2016)
Counter-ions that a name gives are not always drawn.

Assay: DTNB assay: rate of disulfide bond reduction
Type: biochemical
Design: unit not given here
Details: 2nd order kinetic
Protocol: DTNB ASSAY: This assay determines the rate which a mucolytic agent can reduce a disulfide bond using 5,5-Dithiobis(2-nitrobenzoic acid). DTNB in various pH buffers and allows comparison of the kinetic rates of reducing agents. First, reducing agent stock solutions (30 mM) were made up in DMSO. Each compound stock solution was diluted, […] in 1 ml 50 mM Tris-HCl buffer, pH 7.5, and then added in a 1:1 volumetric ratio to a solution of 100 mM DTNB in 50 mM Tris-HCl buffer, pH 7.5. Max Abs412 was measured and then utilized to calculate the activity concentration. If the observed activity concentrations differed from expected activity concentrations by more than 5%, the volume was accordingly adjusted to kinetically test the rate in the next step. After having added the reducing agents, diluted in a range of pH buffer solutions (pH 6.0-7.5), to 45 mM DTNB in 50 mM Tris-HCl and measured the Abs412 for 5 min rates were calculated as a 2nd order kinetic.

In the case of `NCCCC[C@H](N)C(=O)NCCCC[C@H](N)C(=O)NCCOc1ccc(CS)c(CS)c1` [S, (S)-2,6-diamino-N-((S)-5-amino-6-(2-(3,4-bis(mercaptomethyl)phenoxy)ethylamino)-6-oxohexyl)hexanamide], the “Kinetic Reaction Rates of Reduction of DTNB” value (pH 6) is reported as 4483, the “Kinetic Reaction Rates of Reduction of DTNB” value (pH 6.5) is reported as 10715 and the “Kinetic Reaction Rates of Reduction of DTNB” value (pH 7) is reported as 13732. The “Kinetic Reaction Rates of Reduction of DTNB” value (pH 7.5) was 15469.
With `N=C(N)NCCCC[C@H](N)C(=O)NCCCC[C@H](N)C(=O)NCCOc1ccc(CS)c(CS)c1` [E, (S)-2-amino-N-((S)-5-amino-6-(2-(3,4-bis(mercaptomethyl)phenoxy)ethylamino)-6-oxohexyl)-6-guanidinohexanamide Hydrochloride] the “Kinetic Reaction Rates of Reduction of DTNB” value (pH 6) was 5933, the “Kinetic Reaction Rates of Reduction of DTNB” value (pH 6.5) was 13718 and the “Kinetic Reaction Rates of Reduction of DTNB” value (pH 7) was 16393. The “Kinetic Reaction Rates of Reduction of DTNB” value (pH 7.5) was 17109.
With `NCCCC[C@H](N)C(=O)NCCCC[C@H](N)C(=O)NCCCC[C@H](N)C(=O)NCCOc1ccc(CS)c(CS)c1` [T, (S)-2,6-diamino-N-((S)-5-amino-6-((S)-5-amino-6-(2-(3,4-bis(mercaptomethyl)phenoxy)ethylamino)-6-oxohexylamino)-6-oxohexyl)hexanamide] the “Kinetic Reaction Rates of Reduction of DTNB” value (pH 6) was 5144.
In the case of `CC(=O)NCCCC[C@H](N)C(=O)NCCOc1ccc(CS)c(CS)c1` [Compound K, (S)-6-acetamido-2-amino-N-(2-(3,4-bis(mercaptomethyl)phenoxy)ethyl)hexanamide], the “Kinetic Reaction Rates of Reduction of DTNB” value (pH 6) is reported as 678, the “Kinetic Reaction Rates of Reduction of DTNB” value (pH 6.5) is reported as 1820 and the “Kinetic Reaction Rates of Reduction of DTNB” value (pH 7) is reported as 3775. The “Kinetic Reaction Rates of Reduction of DTNB” value (pH 7.5) was 9143.
For `OC[C@@H](O)[C@@H](O)[C@H](O)[C@@H](O)CNCCOc1ccc(CS)c(CS)c1` [Compound O, (2R,3R,4R,5S)-6-(2-(3,4-bis(mercaptomethyl)phenoxy)ethylamino)hexane-1,2,3,4,5-pentaol hydrochloride], the “Kinetic Reaction Rates of Reduction of DTNB” value (pH 6) was 921, the “Kinetic Reaction Rates of Reduction of DTNB” value (pH 6.5) was 2500 and the “Kinetic Reaction Rates of Reduction of DTNB” value (pH 7) was 5412. For the same compound, the “Kinetic Reaction Rates of Reduction of DTNB” value (pH 7.5) was 13547.
For `NCCCC[C@@H](N)C(=O)NCCOc1ccc(CS)c(CS)c1` [Compound V, (R)-2,6-diamino-N-(2-(3,4-bis(mercaptomethyl)phenoxy)ethyl)hexanamide Hydrochloride], the “Kinetic Reaction Rates of Reduction of DTNB” value (pH 6) was 1419, the “Kinetic Reaction Rates of Reduction of DTNB” value (pH 6.5) was 4568 and the “Kinetic Reaction Rates of Reduction of DTNB” value (pH 7) was 6192. The “Kinetic Reaction Rates of Reduction of DTNB” value (pH 7.5) was 10043.
With `N=C(N)NCCCC[C@@H](N)C(=O)NCCCN(CCCNC(=O)[C@H](N)CCCCNC(=N)N)CCOc1ccc(CS)c(CS)c1` [Z, (2R,2′R)-N,N′-(3,3′-(2-(3,4-bis(mercaptomethyl)phenoxy)ethylazanediyl)bis(propane-3,1-diyl))bis(2-amino-6-guanidinohexanamide)] the “Kinetic Reaction Rates of Reduction of DTNB” value (pH 6) was 7200, the “Kinetic Reaction Rates of Reduction of DTNB” value (pH 6.5) was 10420 and the “Kinetic Reaction Rates of Reduction of DTNB” value (pH 7) was 10631. For the same compound, the “Kinetic Reaction Rates of Reduction of DTNB” value (pH 7.5) was 18513.
With `NCCCC[C@H](N)C(=O)NCCCC[C@H](N)C(=O)NCCOc1cc(CS)c(CS)cc1OCCNC(=O)[C@@H](N)CCCCNC(=O)[C@@H](N)CCCCN` [X, (S,2S,2′S)-N,N′-(2,2′-(4,5-bis(mercaptomethyl)-1,2-phenylene)bis(oxy)bis(ethane-2,1-diyl))bis(2-amino-6-((S)-2,6-diaminohexanamido)hexanamide)] the “Kinetic Reaction Rates of Reduction of DTNB” value (pH 6) was 8029.
In the case of `CN(C)CCOc1ccc(CS)c(CS)c1` [Q, (4-(2-(dimethylamino)ethoxy)-1,2-phenylene)dimethanethiol hydrochloride], the “Kinetic Reaction Rates of Reduction of DTNB” value (pH 6) is reported as 954, the “Kinetic Reaction Rates of Reduction of DTNB” value (pH 6.5) is reported as 2984 and the “Kinetic Reaction Rates of Reduction of DTNB” value (pH 7) is reported as 6077. For the same compound, the “Kinetic Reaction Rates of Reduction of DTNB” value (pH 7.5) was 15927.
With `N=C(NCCOc1ccc(CS)c(CS)c1)NC(=O)c1nc(Cl)c(N)nc1N` [R, 3,5-diamino-N-(N-(2-(3,4-bis(mercaptomethyl)phenoxy)ethyl)carbamimidoyl)-6-chloropyrazine-2-carboxamide hydrochloride] the “Kinetic Reaction Rates of Reduction of DTNB” value (pH 6) was 2901, the “Kinetic Reaction Rates of Reduction of DTNB” value (pH 6.5) was 7382 and the “Kinetic Reaction Rates of Reduction of DTNB” value (pH 7) was 13522. The “Kinetic Reaction Rates of Reduction of DTNB” value (pH 7.5) was 16870.
With `OC[C@@H](O)[C@@H](O)[C@H](O)[C@@H](O)CN(CCOc1ccc(CS)c(CS)c1)C[C@H](O)[C@@H](O)[C@H](O)[C@H](O)CO` [N, (2R,2′R,3R,3′R,4R,4′R,5S,5'S)-6,6′-(2-(3,4-bis(mercaptomethyl)phenoxy)ethylazanediyl)dihexane-1,2,3,4,5-pentaol hydrochloride] the “Kinetic Reaction Rates of Reduction of DTNB” value (pH 6) was 952, the “Kinetic Reaction Rates of Reduction of DTNB” value (pH 6.5) was 2366 and the “Kinetic Reaction Rates of Reduction of DTNB” value (pH 7) was 4382. The “Kinetic Reaction Rates of Reduction of DTNB” value (pH 7.5) was 9532.
For `NCCCC[C@H](N)C(=O)NCCOc1cc(CS)c(CS)cc1OCCNC(=O)[C@@H](N)CCCCN` [Compound W, (2S,2′S)-N,N′-(2,2′-(4,5-bis(mercaptomethyl)-1,2-phenylene)bis(oxy)bis(ethane-2,1-diyl))bis(2,6-diaminohexanamide) Hydrochloride], the “Kinetic Reaction Rates of Reduction of DTNB” value (pH 6) was 4850.
With `NCCOc1ccc(CS)c(CS)c1` [KK, (4-(2-aminoethoxy)-1,2-phenylene)dimethanethiol] the “Kinetic Reaction Rates of Reduction of DTNB” value (pH 6) was 873, the “Kinetic Reaction Rates of Reduction of DTNB” value (pH 6.5) was 2411 and the “Kinetic Reaction Rates of Reduction of DTNB” value (pH 7) was 5163. The “Kinetic Reaction Rates of Reduction of DTNB” value (pH 7.5) was 13896.
In the case of `CC(C)(C)OC(=O)NCCOc1ccc(CS)c(CS)c1` [I, tert-butyl 2-(3,4-bis(mercaptomethyl)phenoxy)ethylcarbamate], the “Kinetic Reaction Rates of Reduction of DTNB” value (pH 6) is reported as 285, the “Kinetic Reaction Rates of Reduction of DTNB” value (pH 6.5) is reported as 745 and the “Kinetic Reaction Rates of Reduction of DTNB” value (pH 7) is reported as 1916. The “Kinetic Reaction Rates of Reduction of DTNB” value (pH 7.5) was 7265.
In the case of `O[C@H](CS)[C@H](O)CS` (racemic) [DTT, dithiothreitol, reference compound], the “Kinetic Reaction Rates of Reduction of DTNB” value (pH 6) is reported as 69, the “Kinetic Reaction Rates of Reduction of DTNB” value (pH 6.5) is reported as 176 and the “Kinetic Reaction Rates of Reduction of DTNB” value (pH 7) is reported as 382. The “Kinetic Reaction Rates of Reduction of DTNB” value (pH 7.5) was 2088.
In the case of `N=C(N)NCCCC[C@@H](N)C(=O)NCCOc1ccc(CS)c(CS)c1` [Compound B, (R)-2-amino-N-(2-(3,4-bis(mercaptomethyl)phenoxy)ethyl)-6-guanidinohexanamide Hydrochloride], the “Kinetic Reaction Rates of Reduction of DTNB” value (pH 6) is reported as 1491.
With `N=C(N)NCCCC[C@H](N)C(=O)NCCOc1ccc(CS)c(CS)c1` [C, (S)-2-amino-N-(2-(3,4-bis(mercaptomethyl)phenoxy)ethyl)-6-guanidinohexanamide] the “Kinetic Reaction Rates of Reduction of DTNB” value (pH 6) was 2460, the “Kinetic Reaction Rates of Reduction of DTNB” value (pH 6.5) was 7122 and the “Kinetic Reaction Rates of Reduction of DTNB” value (pH 7) was 12313. For the same compound, the “Kinetic Reaction Rates of Reduction of DTNB” value (pH 7.5) was 17317.
With `N=C(N)NCCOc1ccc(CS)c(CS)c1` [LL, 1-(2-(3,4-bis(mercaptomethyl)phenoxy)ethyl)guanidine] the “Kinetic Reaction Rates of Reduction of DTNB” value (pH 6) was 743, the “Kinetic Reaction Rates of Reduction of DTNB” value (pH 6.5) was 2352 and the “Kinetic Reaction Rates of Reduction of DTNB” value (pH 7) was 4661. For the same compound, the “Kinetic Reaction Rates of Reduction of DTNB” value (pH 7.5) was 8241.
In the case of `N=C(N)NCCCC[C@H](N)C(=O)NCCCC[C@H](N)C(=O)NCCOc1cc(CS)c(CS)cc1OCCNC(=O)[C@@H](N)CCCCNC(=O)[C@@H](N)CCCCNC(=N)N` [Y, (S,2S,2′S)-N,N′-(2,2′-(4,5-bis(mercaptomethyl)-1,2-phenylene)bis(oxy)bis(ethane-2,1-diyl))bis(2-amino-6-((S)-2-amino-6-guanidinohexanamido)hexanamide)], the “Kinetic Reaction Rates of Reduction of DTNB” value (pH 6) is reported as 8718.
For `N=C(N)NCCCC[C@H](N)C(=O)NCCOc1cc(CS)c(CS)cc1OCCNC(=O)[C@@H](N)CCCCNC(=N)N` [H, (2S,2′S)-N,N′-(2,2′-(4,5-bis(mercaptomethyl)-1,2-phenylene)bis(oxy)bis(ethane-2,1-diyl))bis(2-amino-6-guanidinohexanamide) Hydrochloride], the “Kinetic Reaction Rates of Reduction of DTNB” value (pH 6) was 6835.
With `NCCCC[C@H](N)C(=O)NCCOc1ccc(CS)c(CS)c1` [L, (S)-2,6-diamino-N-(2-(3,4-bis(mercaptomethyl)phenoxy)ethyl)hexanamide] the “Kinetic Reaction Rates of Reduction of DTNB” value (pH 6) was 1911, the “Kinetic Reaction Rates of Reduction of DTNB” value (pH 6.5) was 5565 and the “Kinetic Reaction Rates of Reduction of DTNB” value (pH 7) was 8847. For the same compound, the “Kinetic Reaction Rates of Reduction of DTNB” value (pH 7.5) was 14566.
For `CCCCCCN(CCOc1ccc(CS)c(CS)c1)C[C@H](O)[C@@H](O)[C@H](O)[C@H](O)CO` [P, (2R,3R,4R,5S)-6-((2-(3,4-bis(mercaptomethyl)phenoxy)ethyl)(hexyl)amino)hexane-1,2,3,4,5-pentaol hydrochloride], the “Kinetic Reaction Rates of Reduction of DTNB” value (pH 6) was 1018, the “Kinetic Reaction Rates of Reduction of DTNB” value (pH 6.5) was 2701 and the “Kinetic Reaction Rates of Reduction of DTNB” value (pH 7) was 6180. The “Kinetic Reaction Rates of Reduction of DTNB” value (pH 7.5) was 13243.
